Reference: paper PMC6110851, “An Optimized MicroPET Imaging Method for the Distribution and Synergies of Natural Products” (Frontiers in Pharmacology, 2018)
Read-outs that look alike come from different tables or passages of the source.

Experiment: MicroPET distribution of [^18F]-GA after PG polysaccharides intervention
Type: in vivo, mice
Settings: for tissue uptake at 1 h / tissue uptake at 168 h: po; for tissue uptake at 1 h: read-out: %ID/g of [^18F]-GA in the lungs, OA; for tissue uptake at 168 h: PG polysaccharides orally for 7 days, read-out: %ID/g of [^18F]-GA in the lungs, LA
Description: The mice were grouped by weight and housed in cages of the climate control room (25°C), with a photoperiod 12:12-h. During feeding, mice were free to access food and water. Mice were fasted for 24 h before the experiment. The mice were anesthetized with 4% isoflurane while preparing for scanning ([Constantinescu et al., 2013b]; [Cui et al., 2017]). Eighteen healthy male Kunming mice, weighing 20 ± 2 g, were divided into three groups, which were control group, once-administered (OA) group and long-term administration (LA) group. In the OA group, 1 h before the administration of [^18F]-GA, the mice were orally treated with PG polysaccharides. In the LA group, the mice were orally given the PG polysaccharides for 7 days, but not before the administration of [^18F]-GA.
Rice received a tail vein injection (8.67 ± 2.14 MBq/μg) of [^18F]-GA and placed in the scanner bed and mouse-imaging room immediately ([Constantinescu et al., 2013b]; [O’Doherty et al., 2017]). Firstly, 2 h PET scanning was performed using an Inveon-dedicated PET scanner. The average delay between injection and starting of PET scanning was 3.5 min. Rice were maintained stable under 4% isoflurane anesthesia throughout scanning. The PET list-mode data were dynamically classified into 23 3D sinograms of span and three ring difference. After Fourier recombination, the data were reconstructed using a 2D ordered-subset expectation maximization algorithm. Random events were excluded before reconstruction. The response of detector is normalized using a component-based approach. All dynamic images were corrected for radioactive decay automatically. The PET images were reconstructed by a cone beam algorithm into 480 × 480 × 632 image arrays. After the reconstruction, images were spatially transformed to match the PET images ([Constantinescu et al., 2013a],[b]).
The reconstruction of the image was performed using the PMOD software (PMOD Technologies). The 3D volumes of interest (VOIs) were drawn manually of the following organs: brain, heart, liver, lungs, kidneys, cortical bone, and gallbladder. The organs were carefully identified and VOIs were drawn as irregular contours on high-resolution PET images obtained from each mouse ([Constantinescu et al., 2013b]; [Garg et al., 2017]). The size of each VOI was less than the actual size of each organ to minimize the effects of PET on adjacent organ spills. The VOIs drawing was verified by a second operator. The VOIs of cortical bone were generated by first using PET image to depict the entire femur bone ([Constantinescu et al., 2013b]). The VOI was transferred to a dynamic PET image and the mean time-activity curve (TAC) of the decay correction was extracted for each target organ ([Constantinescu et al., 2013b]).

CC1(C)[C@@H](O)CC[C@]2(C)[C@H]3C(=O)C=C4[C@@H]5C[C@@](C)(C(=O)NCCCC[18F])CC[C@]5(C)CC[C@@]4(C)[C@]3(C)CC[C@@H]12 [[^18F]-GA, [^18F]-Glycyrrhetinic acid]
time from which lung %ID/g of OA group differs significantly (OA vs. Con, Table 2): 7 min
[^18F]-GA concentration of lung, OA group relative to LA group (area under the curve, OA: PG polysaccharides 1 h before, LA: for 7 days): 2 times
[^18F]-GA concentration of lung, OA group relative to control mice (area under the curve, PG polysaccharides orally 1 h before [^18F]-GA): 2.7 times
ranking of organ concentration (area under the curve) (control group, mice): concentration of liver was highest, and the lung was lowest
tissue uptake at 60 s (male, Kunming, mouse, lungs, intravenous, mice, control group, Time(s) 60, read-out: %ID/g of [^18F]-GA in the lungs, Con): 8.86 %ID/g
tissue uptake at 180 s (male, Kunming, mouse, lungs, intravenous, mice, control group, Time(s) 180, read-out: %ID/g of [^18F]-GA in the lungs, Con): 4.36 %ID/g
tissue uptake at 300 s (male, Kunming, mouse, lungs, intravenous, mice, control group, Time(s) 300, read-out: %ID/g of [^18F]-GA in the lungs, Con): 3.29 %ID/g
tissue uptake at 420 s (male, Kunming, mouse, lungs, intravenous, mice, control group, Time(s) 420, read-out: %ID/g of [^18F]-GA in the lungs, Con): 2.78 %ID/g
tissue uptake at 540 s (male, Kunming, mouse, lungs, intravenous, mice, control group, Time(s) 540, read-out: %ID/g of [^18F]-GA in the lungs, Con): 2.42 %ID/g
tissue uptake at 780 s (male, Kunming, mouse, lungs, intravenous, mice, control group, Time(s) 780, read-out: %ID/g of [^18F]-GA in the lungs, Con): 2.1 %ID/g
tissue uptake at 900 s (male, Kunming, mouse, lungs, intravenous, mice, control group, Time(s) 900, read-out: %ID/g of [^18F]-GA in the lungs, Con): 2.15 %ID/g
tissue uptake at 1020 s (male, Kunming, mouse, lungs, intravenous, mice, control group, Time(s) 1020, read-out: %ID/g of [^18F]-GA in the lungs, Con): 2.09 %ID/g
tissue uptake at 1140 s (male, Kunming, mouse, lungs, intravenous, mice, control group, Time(s) 1140, read-out: %ID/g of [^18F]-GA in the lungs, Con): 1.9 %ID/g
tissue uptake at 1350 s (male, Kunming, mouse, lungs, intravenous, mice, control group, Time(s) 1350, read-out: %ID/g of [^18F]-GA in the lungs, Con): 1.75 %ID/g
tissue uptake at 1650 s (male, Kunming, mouse, lungs, intravenous, mice, control group, Time(s) 1650, read-out: %ID/g of [^18F]-GA in the lungs, Con): 1.66 %ID/g
tissue uptake at 1950 s (male, Kunming, mouse, lungs, intravenous, mice, control group, Time(s) 1950, read-out: %ID/g of [^18F]-GA in the lungs, Con): 1.55 %ID/g
tissue uptake at 2250 s (male, Kunming, mouse, lungs, intravenous, mice, control group, Time(s) 2250, read-out: %ID/g of [^18F]-GA in the lungs, Con): 1.51 %ID/g
tissue uptake at 2700 s (male, Kunming, mouse, lungs, intravenous, mice, control group, Time(s) 2700, read-out: %ID/g of [^18F]-GA in the lungs, Con): 1.34 %ID/g
tissue uptake at 3300 s (male, Kunming, mouse, lungs, intravenous, mice, control group, Time(s) 3300, read-out: %ID/g of [^18F]-GA in the lungs, Con): 1.26 %ID/g
tissue uptake at 3900 s (male, Kunming, mouse, lungs, intravenous, mice, control group, Time(s) 3900, read-out: %ID/g of [^18F]-GA in the lungs, Con): 1.23 %ID/g
tissue uptake at 4500 s (male, Kunming, mouse, lungs, intravenous, mice, control group, Time(s) 4500, read-out: %ID/g of [^18F]-GA in the lungs, Con): 1.05 %ID/g
tissue uptake at 5100 s (male, Kunming, mouse, lungs, intravenous, mice, control group, Time(s) 5100, read-out: %ID/g of [^18F]-GA in the lungs, Con): 1.04 %ID/g
tissue uptake at 5700 s (male, Kunming, mouse, lungs, intravenous, mice, control group, Time(s) 5700, read-out: %ID/g of [^18F]-GA in the lungs, Con): 1.02 %ID/g
tissue uptake at 6300 s (male, Kunming, mouse, lungs, intravenous, mice, control group, Time(s) 6300, read-out: %ID/g of [^18F]-GA in the lungs, Con): 0.97 %ID/g
tissue uptake at 6900 s (male, Kunming, mouse, lungs, intravenous, mice, control group, Time(s) 6900, read-out: %ID/g of [^18F]-GA in the lungs, Con): 0.94 %ID/g
tissue uptake at 1 h (male, Kunming, mouse, lungs, mice, PG polysaccharides orally 1 h before [^18F]-GA, Time(s) 60): 8.21 %ID/g
tissue uptake at 1 h (male, Kunming, mouse, lungs, mice, PG polysaccharides orally 1 h before [^18F]-GA, Time(s) 180): 5.95 %ID/g
tissue uptake at 1 h (male, Kunming, mouse, lungs, mice, PG polysaccharides orally 1 h before [^18F]-GA, Time(s) 300): 5.53 %ID/g
tissue uptake at 1 h (male, Kunming, mouse, lungs, mice, PG polysaccharides orally 1 h before [^18F]-GA, Time(s) 420): 5.2 %ID/g
tissue uptake at 1 h (male, Kunming, mouse, lungs, mice, PG polysaccharides orally 1 h before [^18F]-GA, Time(s) 540): 4.85 %ID/g
tissue uptake at 1 h (male, Kunming, mouse, lungs, mice, PG polysaccharides orally 1 h before [^18F]-GA, Time(s) 660): 4.63 %ID/g
tissue uptake at 1 h (male, Kunming, mouse, lungs, mice, PG polysaccharides orally 1 h before [^18F]-GA, Time(s) 780): 4.54 %ID/g
tissue uptake at 1 h (male, Kunming, mouse, lungs, mice, PG polysaccharides orally 1 h before [^18F]-GA, Time(s) 900): 4.53 %ID/g
tissue uptake at 1 h (male, Kunming, mouse, lungs, mice, PG polysaccharides orally 1 h before [^18F]-GA, Time(s) 1020): 4.35 %ID/g
tissue uptake at 1 h (male, Kunming, mouse, lungs, mice, PG polysaccharides orally 1 h before [^18F]-GA, Time(s) 1140): 4.25 %ID/g
tissue uptake at 1 h (male, Kunming, mouse, lungs, mice, PG polysaccharides orally 1 h before [^18F]-GA, Time(s) 1350): 4.17 %ID/g
tissue uptake at 1 h (male, Kunming, mouse, lungs, mice, PG polysaccharides orally 1 h before [^18F]-GA, Time(s) 1650): 4.06 %ID/g
tissue uptake at 1 h (male, Kunming, mouse, lungs, mice, PG polysaccharides orally 1 h before [^18F]-GA, Time(s) 1950): 3.95 %ID/g
tissue uptake at 1 h (male, Kunming, mouse, lungs, mice, PG polysaccharides orally 1 h before [^18F]-GA, Time(s) 2250): 3.79 %ID/g
tissue uptake at 1 h (male, Kunming, mouse, lungs, mice, PG polysaccharides orally 1 h before [^18F]-GA, Time(s) 2700): 3.54 %ID/g
tissue uptake at 1 h (male, Kunming, mouse, lungs, mice, PG polysaccharides orally 1 h before [^18F]-GA, Time(s) 3300): 3.17 %ID/g
tissue uptake at 1 h (male, Kunming, mouse, lungs, mice, PG polysaccharides orally 1 h before [^18F]-GA, Time(s) 3900): 3.06 %ID/g
tissue uptake at 1 h (male, Kunming, mouse, lungs, mice, PG polysaccharides orally 1 h before [^18F]-GA, Time(s) 4500): 3.07 %ID/g
tissue uptake at 1 h (male, Kunming, mouse, lungs, mice, PG polysaccharides orally 1 h before [^18F]-GA, Time(s) 5100): 2.96 %ID/g
tissue uptake at 1 h (male, Kunming, mouse, lungs, mice, PG polysaccharides orally 1 h before [^18F]-GA, Time(s) 5700): 2.88 %ID/g
tissue uptake at 1 h (male, Kunming, mouse, lungs, mice, PG polysaccharides orally 1 h before [^18F]-GA, Time(s) 6300): 2.95 %ID/g
tissue uptake at 1 h (male, Kunming, mouse, lungs, mice, PG polysaccharides orally 1 h before [^18F]-GA, Time(s) 6900): 2.85 %ID/g
tissue uptake at 168 h (male, Kunming, mouse, lungs, mice, Time(s) 60): 8.74 %ID/g
tissue uptake at 168 h (male, Kunming, mouse, lungs, mice, Time(s) 180): 4.38 %ID/g
tissue uptake at 168 h (male, Kunming, mouse, lungs, mice, Time(s) 300): 3.63 %ID/g
tissue uptake at 168 h (male, Kunming, mouse, lungs, mice, Time(s) 420): 3.15 %ID/g
tissue uptake at 168 h (male, Kunming, mouse, lungs, mice, Time(s) 540): 2.85 %ID/g
tissue uptake at 168 h (male, Kunming, mouse, lungs, mice, Time(s) 660): 2.9 %ID/g
tissue uptake at 168 h (male, Kunming, mouse, lungs, mice, Time(s) 780): 2.51 %ID/g
tissue uptake at 168 h (male, Kunming, mouse, lungs, mice, Time(s) 900): 2.49 %ID/g
tissue uptake at 168 h (male, Kunming, mouse, lungs, mice, Time(s) 1020): 2.35 %ID/g
tissue uptake at 168 h (male, Kunming, mouse, lungs, mice, Time(s) 1140): 2.19 %ID/g
tissue uptake at 168 h (male, Kunming, mouse, lungs, mice, Time(s) 1350): 2.16 %ID/g
tissue uptake at 168 h (male, Kunming, mouse, lungs, mice, Time(s) 1650): 2.06 %ID/g
tissue uptake at 168 h (male, Kunming, mouse, lungs, mice, Time(s) 1950): 1.89 %ID/g
tissue uptake at 168 h (male, Kunming, mouse, lungs, mice, Time(s) 2250): 1.78 %ID/g
tissue uptake at 168 h (male, Kunming, mouse, lungs, mice, Time(s) 2700): 1.7 %ID/g
tissue uptake at 168 h (male, Kunming, mouse, lungs, mice, Time(s) 3300): 1.48 %ID/g
tissue uptake at 168 h (male, Kunming, mouse, lungs, mice, Time(s) 3900): 1.33 %ID/g
tissue uptake at 168 h (male, Kunming, mouse, lungs, mice, Time(s) 4500): 1.24 %ID/g
tissue uptake at 168 h (male, Kunming, mouse, lungs, mice, Time(s) 5100): 1.18 %ID/g
tissue uptake at 168 h (male, Kunming, mouse, lungs, mice, Time(s) 5700): 1.06 %ID/g
tissue uptake at 168 h (male, Kunming, mouse, lungs, mice, Time(s) 6300): 1.11 %ID/g
tissue uptake at 168 h (male, Kunming, mouse, lungs, mice, Time(s) 6900): 1.05 %ID/g
%ID/g of [^18F]-GA in the lungs, Con (mice, control group, Time(s) 660): 2.45 %ID/g
change of [^18F]-GA concentration in other organs after PG polysaccharides intervention (organs other than lung): no significant change in other organs
